Experimental findings from patent publication US11345681B1, “Inhibitors of fibroblast growth factor receptor kinases” (Kinnate Biopharma Inc., priority 2020, dated 2022) are described below.

The assay has as its target Wild type FGFR2 (Homo sapiens (Human), UniProt P21802). The experiment in a line: FGFR2 kinase assay (fluorescence-based microfluidic mobility shift assay). The class given is biochemical. The following applies: wild type FGFR2 0.06 nM, 100 μM ATP, 80 minutes at room temperature; class symbols.

Sequence of Wild type FGFR2 (P21802 22-821): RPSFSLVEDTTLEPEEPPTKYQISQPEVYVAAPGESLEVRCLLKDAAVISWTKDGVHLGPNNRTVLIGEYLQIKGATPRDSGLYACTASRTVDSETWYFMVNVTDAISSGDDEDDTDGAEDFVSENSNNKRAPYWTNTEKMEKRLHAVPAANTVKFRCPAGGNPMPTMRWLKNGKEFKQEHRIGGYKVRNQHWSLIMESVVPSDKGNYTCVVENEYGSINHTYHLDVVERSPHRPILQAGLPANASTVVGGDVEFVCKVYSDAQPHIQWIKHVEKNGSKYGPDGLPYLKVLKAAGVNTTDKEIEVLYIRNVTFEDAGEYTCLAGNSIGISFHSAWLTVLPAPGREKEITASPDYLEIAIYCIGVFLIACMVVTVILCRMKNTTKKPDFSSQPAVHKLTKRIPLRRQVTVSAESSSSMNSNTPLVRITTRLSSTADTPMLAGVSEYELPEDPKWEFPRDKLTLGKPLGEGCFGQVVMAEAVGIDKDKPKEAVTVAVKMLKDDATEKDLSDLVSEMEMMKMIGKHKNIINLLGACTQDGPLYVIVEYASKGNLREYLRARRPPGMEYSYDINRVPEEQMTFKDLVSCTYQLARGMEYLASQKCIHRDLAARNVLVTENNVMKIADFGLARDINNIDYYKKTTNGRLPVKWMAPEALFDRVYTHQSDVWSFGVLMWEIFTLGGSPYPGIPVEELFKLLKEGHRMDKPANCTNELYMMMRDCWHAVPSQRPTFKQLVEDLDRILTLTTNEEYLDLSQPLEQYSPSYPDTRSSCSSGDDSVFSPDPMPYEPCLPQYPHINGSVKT

Regarding `C=CC(=O)N1C[C@@H](n2nc(C#Cc3cc4ncn(C5COC5)c4cc3F)c(C(N)=O)c2NC)C[C@@H]1COC` [Example 234, 3-{2-[6-Fluoro-1-(oxetan-3-yl)-1,3-benzodiazol-5-yl]ethynyl}-1-[(3S,5R)-5-(methoxymethyl)-1-(prop-2-enoyl)pyrrolidin-3-yl]-5-(methylamino)pyrazole-4-carboxamide], the IC50 (commonly the concentration that inhibits the measured activity by half) is at most 100 nM.

On to `C=CC(=O)N1C[C@@H](n2nc(C#Cc3cccc4c3cnn4C)c(C(N)=O)c2NC)C[C@@H]1COC` [Example 275, 1-((3S,5R)-1-Acryloyl-5-(methoxymethyl)pyrrolidin-3-yl)-3-((1-methyl-1H-indazol-4-yl)ethynyl)-5-(methylamino)-1H-pyrazole-4-carboxamide], for which the IC50 was at most 100 nM.

As to `C=CC(=O)N1C[C@@H](n2nc(C#Cc3cc4ncn(CC)c4cc3F)c(C(N)=O)c2NC)C[C@@H]1COC` [Example 32, 1-((3S,5R)-1-acryloyl-5-(methoxymethyl)pyrrolidin-3-yl)-3-((1-ethyl-6-fluoro-1H-benzo[d]imidazol-5-yl)ethynyl)-5-(methylamino)-1H-pyrazole-4-carboxamide], the concentration for half-maximal inhibition (IC50) is at most 100 nM.

As for `C=CC(=O)N1C[C@@H](n2nc(C#Cc3cc4nc(C)n(CC)c4cc3Cl)c(C(N)=O)c2NC)C[C@@H]1COC` [Example 33, 1-((3S,5R)-1-acryloyl-5-(methoxymethyl)pyrrolidin-3-yl)-3-((6-chloro-1-ethyl-2-methyl-1H-benzo[d]imidazol-5-yl)ethynyl)-5-(methylamino)-1H-pyrazole-4-carboxamide], the concentration for half-maximal inhibition (IC50) was at most 100 nM.

With `C=CC(=O)N1C[C@@H](n2nc(C#Cc3cc4nc(C)n(CC)c4cc3F)c(C(N)=O)c2NC)C[C@@H]1COC` [Example 37, 3-[2-(1-ethyl-6-fluoro-2-methyl-1,3-benzodiazol-5-yl)ethynyl]-1-[(3S,5R)-5-(methoxymethyl)-1-(Prop-2-enoyl)pyrrolidin-3-yl]-5-(methylamino)pyrazole-4-carboxamide], the IC50 is at most 100 nM.

For the compound `C=CC(=O)N1C[C@@H](n2nc(C#Cc3ccc4ncn(CC)c4c3F)c(C(N)=O)c2NC)C[C@@H]1COC` [Example 36, 3-[2-(3-ethyl-4-fluoro-1,3-benzodiazol-5-yl)ethynyl]-1-[(3S,5R)-5-(methoxymethyl)-1-(prop-2-enoyl)pyrrolidin-3-yl]-5-(methylamino)pyrazole-4-carboxamide], the IC50 fell in the range of 100 to 1000 nM.

On to `C=CC(=O)N1C[C@@H](n2nc(C#Cc3c(Cl)cc4c(ncn4CC)c3F)c(C(N)=O)c2NC)C[C@@H]1COC` [Example 99, 3-[2-(6-Chloro-1-ethyl-4-fluoro-1,3-benzodiazol-5-yl)ethynyl]-1-[(3S,5R)-5-(methoxymethyl)-1-(prop-2-enoyl)pyrrolidin-3-yl]-5-(methylamino)pyrazole-4-carboxamide], for which the 50% inhibitory concentration (IC50) was at most 100 nM.

For the compound `C=CC(=O)N1C[C@@H](n2nc(C#Cc3c(F)cc4c(ncn4CC)c3F)c(C(N)=O)c2NCCCN2CCOCC2)C[C@@H]1COC` [Example 111, 3-[2-(1-Ethyl-4,6-difluoro-1,3-benzodiazol-5-yl)ethynyl]-1-[(3S,5R)-5-(methoxymethyl)-1-(prop-2-enoyl)pyrrolidin-3-yl]-5-[[3-(morpholin-4-yl)propyl]amino]pyrazole-4-carboxamide], the IC50 is at most 100 nM.

For `[2H]C([2H])([2H])OC[C@H]1C[C@H](n2nc(C#Cc3cc4ncn(CC)c4cc3Cl)c(C(N)=O)c2NC)CN1C(=O)C=C` [Example 138, 1-((3S,5R)-1-acryloyl-5-((methoxy-d3)methyl)pyrrolidin-3-yl)-3-((6-chloro-1-ethyl-1H-benzo[d]imidazol-5-yl)ethynyl)-5-(methylamino)-1H-pyrazole-4-carboxamide], the half-maximal inhibitory concentration (IC50) was at most 100 nM.

Take `C=CC(=O)N1C[C@@H](n2nc(C#Cc3c(F)cc4c(nc(C5CC5)n4C)c3F)c(C(N)=O)c2NC)C[C@@H]1COC` [Example 50, 3-[2-(2-Cyclopropyl-4,6-difluoro-1-methyl-1,3-benzodiazol-5-yl)ethynyl]-1-[(3S,5R)-5-(methoxymethyl)-1-(prop-2-enoyl)pyrrolidin-3-yl]-5-(methylamino)pyrazole-4-carboxamide]: the half-inhibitory concentration (IC50) was at most 100 nM.

In the case of `C=CC(=O)N1C[C@@H](n2nc(C#Cc3cc4nc(C)n(C5CCC5)c4cc3Cl)c(C(N)=O)c2NC)C[C@@H]1COC` [Example 233, 1-((3S,5R)-1-Acryloyl-5-(methoxymethyl)pyrrolidin-3-yl)-3-((6-chloro-1-cyclobutyl-2-methyl-1H-benzo[d]imidazol-5-yl)ethynyl)-5-(methylamino)-1H-pyrazole-4-carboxamide], the half-maximal inhibitory concentration (IC50) was at most 100 nM.

With `C=CC(=O)N1C[C@@H](n2nc(C#Cc3cc4nc(C)n(CC)c4cc3C#N)c(C(N)=O)c2NC)C[C@@H]1COC` [Example 24, 1-((3S,5R)-1-acryloyl-5-(methoxymethyl)pyrrolidin-3-yl)-3-((6-cyano-1-ethyl-2-methyl-1H-benzo[d]imidazol-5-yl)ethynyl)-5-(methylamino)-1H-pyrazole-4-carboxamide], the IC50 was 100 to 1000 nM.
